Laboratory results taken from patent US20130195886A1, “Methods for Fructanase and Fructokinase Inhibition” (The Regents of the University of Colorado, A Body Corporate, priority 2011, published 2013).

Tests used:
KHKC = target: T1, KHKC (Homo sapiens, UniProt P50053); assay: KHKC % inhibition of virtual-screen hits; conditions: for KHKC % Inhibition (10 UM): 10 uM compound; for inhibition at 10 µM: read-out: KHKC % Inhibition (10 µM)
T1 sequence (P50053 1-298): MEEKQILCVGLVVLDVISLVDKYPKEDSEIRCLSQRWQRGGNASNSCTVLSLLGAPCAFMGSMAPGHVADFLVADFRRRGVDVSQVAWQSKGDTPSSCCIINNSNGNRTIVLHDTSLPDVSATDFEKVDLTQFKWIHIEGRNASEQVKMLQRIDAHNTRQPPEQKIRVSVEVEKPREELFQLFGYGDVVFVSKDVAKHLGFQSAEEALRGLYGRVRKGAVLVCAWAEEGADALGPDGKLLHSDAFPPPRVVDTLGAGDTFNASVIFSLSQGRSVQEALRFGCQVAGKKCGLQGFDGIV

KHKA = target: T2, KHKA (Homo sapiens, UniProt P50053); assay: KHKA % inhibition of virtual-screen hits; conditions: for inhibition at 10 µM: read-out: KHKA % Inhibition (10 µM)
T2 sequence (P50053 1-298 isoform P50053-2): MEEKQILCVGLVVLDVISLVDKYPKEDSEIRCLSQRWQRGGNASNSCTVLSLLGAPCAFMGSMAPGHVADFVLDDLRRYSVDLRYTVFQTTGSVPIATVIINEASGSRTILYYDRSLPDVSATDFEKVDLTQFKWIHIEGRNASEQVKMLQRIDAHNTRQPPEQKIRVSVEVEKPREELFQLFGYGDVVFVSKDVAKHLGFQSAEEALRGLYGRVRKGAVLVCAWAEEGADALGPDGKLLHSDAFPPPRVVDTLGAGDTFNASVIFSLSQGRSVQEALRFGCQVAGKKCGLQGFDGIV

[1] = tested on: allergy-susceptible mice (lacking the toll-like receptor 4); assay: Experiment 1: peanut food allergy sensitisation and challenge; type: in vivo; conditions: fructose 30% in water added to peanuts plus cholera toxin
mice = type: in vivo; conditions: fructose (30%) vs no fructose, p<0.02 Mann Whitney
[2] = tested on: human intestinal epithelial cells (CaCo-2); assay: fructose exposure of intestinal epithelial cells, polarity and tight junction expression; type: cell-based
wild type (WT) mice = assay: fructose feeding, duodenum quantitative real time PCR; type: in vivo; conditions: 15% fructose water 3 weeks, actin control
Description: In the first set of studies, three-month-old male wild type (WT) mice or fructokinase A/C knockout mice (KHK-A/C KO) (obtained from David Bonthron, Leeds, UK)(72) were administered fructose with normal chow for 3 weeks. […] Due to the different preference for fructose water between WT mice and KHK-A/C KO mice, mice were given 15% or 30% of fructose water, respectively. Both WT mice and KHK-A/C KO mice drank the same amount of fructose (FIG. 4A). For each group, the duodenum was removed after 20 hours of fasting of normal chow and the lining scraped and RNA extracted. Quantitative real time PCR was performed for fructokinase C (KHK-C, FIG. 4B), and tight junction genes occludin (FIG. 4C) and ZO-1 (FIG. 4D) using actin as an internal control.

In the case of `CSc1nn(-c2ccccc2)cc1-c1nc(-c2ccccc2)cs1` [Cpd 3], the “KHKC % Inhibition (10 UM)” value (KHKC) was 19.9% and the inhibition at 10 µM (KHKC) was 19.9%.
In the case of `CSc1nn(-c2ccccc2)c(N)c1C#N` [Cpd 2], the “KHKC % Inhibition (100 uM)” value (KHKC; 100 uM compound) was 16.8%, the inhibition at 10 µM (KHKC) was 7.8% and the inhibition at 100 µM (KHKC; read-out: KHKC % Inhibition (100 uM)) was 16.8%. For the same molecule, the “KHKA % Inhibition (100 uM)” value (KHKA; 100 uM compound) was 29.4%, the inhibition at 10 µM (KHKA) was 5.7% and the inhibition at 100 µM (KHKA; read-out: KHKA % Inhibition (100 uM)) was 29.4%.
`O=C(CO)[C@@H](O)[C@H](O)[C@H](O)CO` [fructose] was tested, and the “fall in temperature, group 3 compared to group 1” value [1] was “greater fall in temperature”, the “symptoms, group 3 compared to group 1” value [1] was “numerically worse symptoms” and the “peanut IgE levels” value (mice) was “higher”. For the same molecule, the “expression of genes involved in the maintenance of cell polarity” value ([2]; 5 mM fructose) was “markedly decreased”, the “expression of transmembrane (claudin-4) and scaffolding (ZO-1 and occluding) proteins at the tight junctions” value ([2]; fructose exposure) was “substantially down-regulated” and the “localisation of polarity/tight junction proteins (confocal analysis)” value ([2]; fructose exposure) was “translocates them intracellularly from the basolateral membrane domain”. For the same molecule, the expression of e-cadherin ([2]; fructose for 96 hours) was “dramatically down-regulated”, the “KHK mRNA expression” value (wild type (WT) mice) was “upregulation” and the “ZO-1 mRNA” value (wild type (WT) mice) was “significant decrease”. The “occludin mRNA” value (wild type (WT) mice) was “significant decrease”.
`CSc1nn(-c2ccccc2)cc1/C(N)=N/OC(=O)Nc1ccc(OC(F)(F)F)cc1` [Cpd 1] was tested, and the “KHKC % Inhibition (10 UM)” value (KHKC) was 25.6%, the inhibition at 10 µM (KHKC) was 25.6% and the “KHKA % Inhibition (10 UM)” value (KHKA; 10 uM compound) was 7.0%. For the same molecule, the inhibition at 10 µM (KHKA) was 7%.
